Where “and” joins values, the source holds several entries; their conditions need not be identical. Equal values may be shown once.
Columns and labels:
[1] = biological target: SMARCA2 (Homo sapiens, UniProt P51531); experiment: SMARCA2 capillary electrophoresis protein assay in RKO cells; type: cell-based; parameters: endogenous in cells; host or cells: RKO, NCI-H1568, A549, HCT116, LU99, HCC-364, HCT-15, HCC4006, SK-N-AS
Method: 130,000–200,000 cells were seeded in 24-well plates and incubated until settled down or overnight. Compounds were dissolved in DMSO and added to cells in indicated concentrations using a digital dispenser following an optional media change. […] For SMARCA2/4 half-life determination, 150,000 or 200,000 cells were seeded in 24-well plates. […] For SMARCA2/4 re-synthesis measurements, 200,000 cells were seeded in 24-well plates. […] Medium was removed, cells were washed with PBS and lysed with 80 µl Lysis Buffer (MSD Tris Lysis Buffer (#R60TX-2) + Halt Inhibitor Cocktail (100x) + Benzonase 0.5 µL/ml). Samples were frozen at −80 °C and thawed at room temperature before use. Samples were transferred to a V-bottom plate and insoluble debris was pelleted by centrifugation for 5 min at maximum speed. The supernatant was transferred to a fresh plate. Master Mix and Ladder were prepared according to manufacturer’s instructions for 12–230 kDa Wes Separation Module, 8 × 25 capillary cartridges, Protein Simple #SM-W004 with Anti-Rabbit Detection Module for Wes, Peggy Sue or Sally Sue, Protein Simple #DM-001. 4.8 µl lysate were mixed with 1.2 µl Master Mix to achieve a protein concentration of ~0.5 µg/µl. […] Wes plates were prepared and run according to manufacturer’s instructions. Proteins were quantified with accompanying Compass Software. SMARCA2/4 protein levels were normalised to GAPDH. […] Where applicable, curves were fitted using a 4-parametric logistic model.

[2] = biological target: T1, SMARCA4^BD (Homo sapiens, UniProt P51532); experiment: SPR binding to immobilised SMARCA4 bromodomain
T1 construct: P51532, residues 1448–1569 with additional N-terminal SM residues; GST (TEV site) (N, cleaved yes); made in house; host or cells: Escherichia coli BL21(DE3); construct from SGC Toronto
T1 sequence (P51532 1448-1569): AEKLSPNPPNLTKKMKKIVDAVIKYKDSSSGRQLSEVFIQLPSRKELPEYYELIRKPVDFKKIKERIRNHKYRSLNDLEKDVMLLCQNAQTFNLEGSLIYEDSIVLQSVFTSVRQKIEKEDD
Method: SMARCA4^BD was provided by the Structural Genomics Consortium (SGC), Toronto[32] and SMARCA2^BD and PRM1^BD5 were synthesised by GeneArt then subcloned into pDEST15 vectors (Invitrogen). The VCB complex was expressed and purified as described previously, with the modification that 0.3 mM IPTG was used for induction of expression. […] Both were stored in 20 mM 4-(2-hydroxyethyl)−1-piperazineethanesulfonic acid (HEPES), 150 mM sodium chloride and 1 mM tris(2-carboxyethyl)phosphine (TCEP) pH 7.5. SMARCA2^BD, SMARCA4^BD and PBRM1^BD5 were expressed in Escherichia coli BL21(DE3) as N-terminal GST fusion proteins with a TEV protease cleavage site. Expression and purification of these proteins has been described previously[32],[33]. Starter cultures were grown overnight at 37 °C in 10 mL of Luria-Bertani (LB) medium with ampicillin (100 μg/mL). The starter cultures were diluted (1:100) in Terrific Broth (TB) medium with ampicillin (100 μg/mL) and grown in a shaking incubator at 37 °C to an optical density (OD600) ~1 before the temperature was lowered for induction (to 23 °C for SMARCA2^BD or 18 °C for SMARCA4^BD and PRRM1^BD5). […] Cells were harvested by centrifugation and stored at −80 °C prior to purification. Cells were resuspended in Lysis buffer and lysed by sonication (20 pulses of 5 s for 4 min) using a Sonopuls HD 3080 (Bandelin, Berlin, Germany) or by homogenisation using a Stansted Pressure Cell Homogeniser (Stansted Fluid Power). The Lysis buffers were as follows: for SMARCA2^BD: 50 mM HEPES, 500 mM sodium chloride, 5% glycerol, 5 mM dithiothreitol (DTT); for SMARCA4^BD: 25 mM HEPES, 0.3 M sodium chloride, 5% glycerol, 10 mM DTT, pH 7.5; for PBRM1^BD5: 25 mM HEPES, 300 mM sodium chloride, 5% glycerol, 10 mM DTT, pH 7.8; in each case supplemented with complete protease inhibitors (Roche). Affinity purification was performed using Glutathione Sepharose 4B (GE Healthcare) in batch mode or on-column. […] For SMARCA2^BD, prior to TEV protease cleavage the eluted GST-tagged BD was first dialysed into desalting buffer (20 mM HEPES, 250 mM sodium chloride, pH 7.0 + 0.5% glycerol). Where TEV cleavage was performed in solution, a second affinity (GST-trap) column purification step was carried out to remove the GST-tag and uncleaved GST-tagged protein. Proteins were further purified by SEC (HiLoad Superdex-75, 16/600) (GE Healthcare) and stored in Storage buffer (for SMARCA2^BD: 20 mM HEPES, 150 mM sodium chloride, pH 7.5; for SMARCA4^BD: 10 mM HEPES, 0.5 M NaCl, 5% glycerol, pH 7.5; for PBRM1^BD5: 20 mM HEPES, 300 mM NaCl, 5 mM DTT, pH 7.8). For AlphaScreen assays, eluted GST-tagged BDs were purified directly by SEC in the respective storage buffers without TEV cleavage. All chromatography purification steps were performed either at room temperature or 4 °C using an ÄKTA FPLC purification system (GE Healthcare) or a plastic Econo-Pac column (Bio-Rad).
SPR data were acquired on Biacore 8K or T200 instruments (Cytiva). Target proteins were immobilised at 25 °C on CM5 chips by amine coupling (EDC/NHS, Cytiva) in HBS-P+ running buffer (pH 7.4), containing 2 mM TCEP. After surface activation with EDC/NHS (contact time 420 s, flow rate 10 µl/min) SMARCA2^BD and SMARCA4^BD at 0.01–0.05 mg/ml in coupling buffer (10 mM Na-Acetate pH 6.5, 0.005% TWEEN 20 and 50 µM PFI-3[13]) were immobilised to a density of 100–5000 Response Units (RU). The reference surface was subsequently deactivated using 1 M ethanolamine. For VCB immobilisation, streptavidin (Sigma Aldrich, prepared at 1 mg/ml in 10 mM sodium acetate coupling buffer, pH 5.0) was immobilised by amine coupling to a density of 3000–5000 RU after which biotinylated VCB complex (0.125 mM in running buffer) was streptavidin-coupled to a density of 100–500 RU. Biotinylated VCB was prepared as previously described[27]: in brief, the complex was mixed 1:1 with EZ-Link NHS–PEG4–biotin (Thermo Scientific) and incubated at room temperature for 1 h.

SMARCA2, sequence (P51531 whole entry): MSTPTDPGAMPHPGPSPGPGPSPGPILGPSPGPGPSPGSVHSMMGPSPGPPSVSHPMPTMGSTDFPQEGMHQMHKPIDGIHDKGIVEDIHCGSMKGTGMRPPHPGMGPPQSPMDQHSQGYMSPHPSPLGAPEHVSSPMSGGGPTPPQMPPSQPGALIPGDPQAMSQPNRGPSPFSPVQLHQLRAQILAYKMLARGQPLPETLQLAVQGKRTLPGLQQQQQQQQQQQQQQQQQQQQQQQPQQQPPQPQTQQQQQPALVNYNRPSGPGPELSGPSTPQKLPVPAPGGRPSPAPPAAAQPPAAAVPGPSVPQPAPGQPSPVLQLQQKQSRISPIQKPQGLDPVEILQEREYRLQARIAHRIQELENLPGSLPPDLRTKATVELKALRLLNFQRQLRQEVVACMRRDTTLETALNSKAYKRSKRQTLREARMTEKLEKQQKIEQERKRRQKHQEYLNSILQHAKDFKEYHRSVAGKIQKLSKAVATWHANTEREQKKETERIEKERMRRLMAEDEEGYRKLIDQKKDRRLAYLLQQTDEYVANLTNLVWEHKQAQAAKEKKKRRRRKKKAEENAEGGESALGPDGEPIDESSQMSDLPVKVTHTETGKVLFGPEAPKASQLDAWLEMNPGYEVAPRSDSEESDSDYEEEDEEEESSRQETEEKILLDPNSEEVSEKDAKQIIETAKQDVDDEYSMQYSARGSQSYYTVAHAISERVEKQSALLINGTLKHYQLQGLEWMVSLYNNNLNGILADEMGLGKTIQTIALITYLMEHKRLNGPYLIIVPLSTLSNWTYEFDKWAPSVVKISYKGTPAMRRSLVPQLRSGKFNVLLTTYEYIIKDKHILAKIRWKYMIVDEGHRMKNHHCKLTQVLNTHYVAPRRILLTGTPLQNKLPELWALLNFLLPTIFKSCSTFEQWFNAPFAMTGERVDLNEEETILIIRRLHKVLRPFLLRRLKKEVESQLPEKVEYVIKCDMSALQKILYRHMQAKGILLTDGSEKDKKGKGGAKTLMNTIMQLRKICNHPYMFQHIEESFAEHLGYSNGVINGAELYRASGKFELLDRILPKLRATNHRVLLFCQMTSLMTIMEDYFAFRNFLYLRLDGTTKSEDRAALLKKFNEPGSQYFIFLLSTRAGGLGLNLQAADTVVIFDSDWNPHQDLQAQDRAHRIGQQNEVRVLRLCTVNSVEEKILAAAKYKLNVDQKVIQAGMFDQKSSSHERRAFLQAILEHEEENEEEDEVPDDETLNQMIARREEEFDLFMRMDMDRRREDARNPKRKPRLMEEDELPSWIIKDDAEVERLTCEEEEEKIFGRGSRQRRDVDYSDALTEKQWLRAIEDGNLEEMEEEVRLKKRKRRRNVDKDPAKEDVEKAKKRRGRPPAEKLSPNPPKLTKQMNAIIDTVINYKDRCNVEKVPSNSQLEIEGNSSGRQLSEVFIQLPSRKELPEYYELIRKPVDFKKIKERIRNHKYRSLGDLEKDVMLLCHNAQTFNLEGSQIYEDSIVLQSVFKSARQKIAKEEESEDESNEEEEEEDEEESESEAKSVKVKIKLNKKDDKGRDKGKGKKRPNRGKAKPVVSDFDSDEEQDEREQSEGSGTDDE

Row | SMILES | DC50 ([1]; RKO (4 h), mean ± SD) [nM] | DC50 ([1]; RKO (18 h), mean ± SD) [nM] | Kd ([2]; individual replicates) | window of SMARCA2 over SMARCA4 degradation ([1]; RKO cells) [fold] | DC50 ([1]; RKO cells, time not stated at the place (Supplementary Data 2)) [nM] | Dmax ([1]; RKO, RKO (4 h), mean ± SD) [%] | Dmax ([1]; RKO, RKO (18 h), mean ± SD) [%] | Bottom (% protein remaining, four-parameter fit) ([1]; RKO, SM2) [%] | HillSlope (protein remaining) ([1]; RKO, SM2) | Top (% protein remaining, four-parameter fit) ([1]; RKO, SM2) [%] | Kd ([2]; SMARCA4BD, mean ± SD) [nM] | SMARCA2 Dmax ([1]; RKO (4 h), mean ± SD) [%] | SMARCA2 Dmax ([1]; RKO (18 h), mean ± SD) [%] | SMARCA2/4 selectivity improvement on linker elongation (compound 11 compared with compound 6) ([1]; all-carbon linker series)
1 | CN1CCN(c2nc(=O)c3ccccc3o2)CC1 [compound 14] | > 25000 | > 25000 | > 200000 nM and 140000 nM | – | – | – | – | – | – | – | – | – | – | –
2 | Cc1ncsc1-c1ccc(C(CCC(C)CCN2CCC(c3ccc4c(c3)n(C3CCCC3)c3nc(=O)c5c(Br)cccc5n43)CC2)NC(=O)C2CC(O)CN2C(=O)C(NC(=O)C2(F)CC2)C(C)(C)C)cc1 (stereo not shown) [ACBI2] | 4 ± 1 | – | 236 nM and 318 nM and 388 nM | > 30 | 1 | 71 ± 2 | 81 ± 7 | 21.72 | -0.9367 | 158.8 | 314 ± 76 | – | – | –
3 | Cc1ncsc1-c1ccc([C@H](CCCCN2CCC(c3ccc4c(c3)n(C3CCCC3)c3nc(=O)c5c(Br)cccc5n43)CC2)NC(=O)[C@@H]2C[C@@H](O)CN2C(=O)[C@@H](NC(=O)C2(F)CC2)C(C)(C)C)cc1 [compound 25] | 3 ± 1 | 3 ± 1 | 142 nM and 157 nM and 161 nM | – | – | – | – | – | – | – | 153 ± 10 | 66 ± 5 | 80 ± 6 | –
4 | Cc1ncsc1-c1ccc([C@H](CCCCCN2CCC(c3ccc4c(c3)n(C3CCCC3)c3nc(=O)c5c(Br)cccc5n43)CC2)NC(=O)[C@@H]2C[C@@H](O)CN2C(=O)[C@@H](NC(=O)C2(F)CC2)C(C)(C)C)cc1 [compound 11] | 2 ± 1 | 1 ± 0.1 | 201 nM and 223 nM and 466 nM | – | – | 73 ± 6 | 87 ± 2 | – | – | – | 297 ± 147 | – | – | two- to threefold
5 | Cc1ncsc1-c1ccc(CNC(=O)[C@@H]2C[C@@H](O)CN2C(=O)[C@@H](NC(=O)C2(F)CC2)C(C)(C)C)c(OCCOCCOCCN2CCC(c3ccc4c(c3)n(C3CCCC3)c3nc(=O)c5c(Br)cccc5n43)CC2)c1 [compound 21] | > 25000 | 106 ± 38 | 868 nM and 1040 nM and 682 nM | – | – | – | – | – | – | – | 863 ± 179 | – | 67± 8 | –
6 | Cc1ncsc1-c1ccc(CNC(=O)[C@@H]2C[C@@H](O)CN2C(=O)[C@@H](NC(=O)C2(F)CC2)C(C)(C)C)c(OCCOCCOCCOCCN2CCC(c3ccc4c(c3)n(C3CCCC3)c3nc(=O)c5c(Br)cccc5n43)CC2)c1 [compound 22] | 175 ± 165 | 148 ± 97 | 1040 nM and 1650 nM and 1600 nM | – | – | – | – | – | – | – | 1430 ± 339 | 71 ± 25 | 75 ± 8 | –

— publication PMC9551036, “A selective and orally bioavailable VHL-recruiting PROTAC achieves SMARCA2 degradation in vivo” (Nature Communications, 2022)
